In ChEMBL document CHEMBL3045668, “Synthesis, antioxidant, and antibacterial studies of phenolic esters and amides of 2-(1-benzofuran-2-yl) quinoline-4-carboxylic acid” (Med Chem Res, 2013):
≈ marks a conversion by molar mass, not a printed value.

Legend:
[1] = system: Radical scavenging activity; experiment: Antioxidant activity assessed as DPPH radical scavenging activity […] after 30 min by spectrophotometric analysis; format: functional
Pantoea dispersa [2] = experiment: Antibacterial activity against Pantoea dispersa after 18 to 20 hr by serial broth dilution method; format: functional
[3] = Metal chelating activity assessed as inhibition of Fe2+-ferrozine complex at 0.5 to 2 mg/ml after 10 min by spectrophotometric analysis; format: physicochemical
Staphylococcus aureus [4] = experiment: Antibacterial activity against Staphylococcus aureus after 18 to 20 hr by serial broth dilution method; format: functional
Staphylococcus aureus [5] = experiment: Antibacterial activity against Staphylococcus aureus at 1 mg/ml after 24 hr by agar well diffusion assay; format: functional; settings: read-out: IZ
Enterococcus [6] = experiment: Antibacterial activity against Enterococcus at 1 mg/ml after 24 hr by agar well diffusion assay; format: functional; settings: read-out: IZ
Ochrobactrum [7] = experiment: Antibacterial activity against Ochrobactrum after 18 to 20 hr by serial broth dilution method; format: functional
Pantoea dispersa [8] = experiment: Antibacterial activity against Pantoea dispersa at 1 mg/ml after 24 hr by agar well diffusion assay; format: functional; settings: read-out: IZ
Enterococcus [9] = experiment: Antibacterial activity against Enterococcus after 18 to 20 hr by serial broth dilution method; format: functional
Ochrobactrum [10] = experiment: Antibacterial activity against Ochrobactrum at 1 mg/ml after 24 hr by agar well diffusion assay; format: functional; settings: read-out: IZ

O=C(Oc1cccc2ccccc12)c1cc(-c2cc3ccccc3o2)nc2ccccc12
IC50 [1]: 45.6 µg/mL (≈ 110 µM) | MIC (Pantoea dispersa [2]): 120 µg/mL (≈ 289 µM) | inhibition (INH) [3]: Active | MIC (Staphylococcus aureus [4]): 250 µg/mL (≈ 602 µM) | zone of inhibition at 1000 µg/mL (Staphylococcus aureus [5]): 14 mm | zone of inhibition at 1000 µg/mL (Enterococcus [6]): 13 mm | MIC (Ochrobactrum [7]): 500 µg/mL (≈ 1200 µM) | zone of inhibition at 1000 µg/mL (Pantoea dispersa [8]): 15 mm | MIC (Enterococcus [9]): 500 µg/mL (≈ 1200 µM) | zone of inhibition at 1000 µg/mL (Ochrobactrum [10]): 11 mm

Cc1nccn1C(=O)c1cc(-c2cc3ccccc3o2)nc2ccccc12
MIC (Pantoea dispersa [2]): 250 µg/mL (≈ 707 µM) | MIC (Staphylococcus aureus [4]): > 500 µg/mL | zone of inhibition at 1000 µg/mL (Staphylococcus aureus [5]): 8 mm | zone of inhibition at 1000 µg/mL (Enterococcus [6]): 9 mm | MIC (Ochrobactrum [7]): 250 µg/mL (≈ 707 µM) | zone of inhibition at 1000 µg/mL (Pantoea dispersa [8]): 15 mm | MIC (Enterococcus [9]): > 500 µg/mL | zone of inhibition at 1000 µg/mL (Ochrobactrum [10]): 12 mm

O=C(Oc1ccccc1)c1cc(-c2cc3ccccc3o2)nc2ccccc12
MIC (Pantoea dispersa [2]): 120 µg/mL (≈ 328 µM) | inhibition (INH) [3]: Active | MIC (Staphylococcus aureus [4]): 60 µg/mL (≈ 164 µM) | zone of inhibition at 1000 µg/mL (Staphylococcus aureus [5]): 16 mm | zone of inhibition at 1000 µg/mL (Enterococcus [6]): 12 mm | MIC (Ochrobactrum [7]): 60 µg/mL (≈ 164 µM) | zone of inhibition at 1000 µg/mL (Pantoea dispersa [8]): 18 mm | MIC (Enterococcus [9]): 120 µg/mL (≈ 328 µM) | zone of inhibition at 1000 µg/mL (Ochrobactrum [10]): 16 mm

O=C(Oc1c(Cl)cc(Cl)cc1Cl)c1cc(-c2cc3ccccc3o2)nc2ccccc12
IC50 [1]: 24.34 µg/mL (≈ 51.9 µM) | MIC (Pantoea dispersa [2]): 250 µg/mL (≈ 533 µM) | MIC (Staphylococcus aureus [4]): 500 µg/mL (≈ 1070 µM) | zone of inhibition at 1000 µg/mL (Staphylococcus aureus [5]): 12 mm | zone of inhibition at 1000 µg/mL (Enterococcus [6]): 10 mm | MIC (Ochrobactrum [7]): 500 µg/mL (≈ 1070 µM) | zone of inhibition at 1000 µg/mL (Pantoea dispersa [8]): 14 mm | MIC (Enterococcus [9]): 500 µg/mL (≈ 1070 µM) | zone of inhibition at 1000 µg/mL (Ochrobactrum [10]): 12 mm

O=C(Oc1ccc(Cl)cc1)c1cc(-c2cc3ccccc3o2)nc2ccccc12
MIC (Pantoea dispersa [2]): 60 µg/mL (≈ 150 µM) | inhibition (INH) [3]: Active | MIC (Staphylococcus aureus [4]): 120 µg/mL (≈ 300 µM) | zone of inhibition at 1000 µg/mL (Staphylococcus aureus [5]): 17 mm | zone of inhibition at 1000 µg/mL (Enterococcus [6]): 14 mm | MIC (Ochrobactrum [7]): 60 µg/mL (≈ 150 µM) | zone of inhibition at 1000 µg/mL (Pantoea dispersa [8]): 18 mm | MIC (Enterococcus [9]): 120 µg/mL (≈ 300 µM) | zone of inhibition at 1000 µg/mL (Ochrobactrum [10]): 17 mm

O=C(Oc1ccc(Br)cc1)c1cc(-c2cc3ccccc3o2)nc2ccccc12
MIC (Pantoea dispersa [2]): 500 µg/mL (≈ 1130 µM) | inhibition (INH) [3]: Active | MIC (Staphylococcus aureus [4]): 60 µg/mL (≈ 135 µM) | zone of inhibition at 1000 µg/mL (Staphylococcus aureus [5]): 18 mm | zone of inhibition at 1000 µg/mL (Enterococcus [6]): 16 mm | MIC (Ochrobactrum [7]): 250 µg/mL (≈ 563 µM) | zone of inhibition at 1000 µg/mL (Pantoea dispersa [8]): 14 mm | MIC (Enterococcus [9]): 60 µg/mL (≈ 135 µM) | zone of inhibition at 1000 µg/mL (Ochrobactrum [10]): 15 mm

O=C(c1cc(-c2cc3ccccc3o2)nc2ccccc12)N1CCOCC1
MIC (Pantoea dispersa [2]): 250 µg/mL (≈ 698 µM) | MIC (Staphylococcus aureus [4]): > 500 µg/mL | zone of inhibition at 1000 µg/mL (Staphylococcus aureus [5]): 10 mm | zone of inhibition at 1000 µg/mL (Enterococcus [6]): 13 mm | MIC (Ochrobactrum [7]): 500 µg/mL (≈ 1400 µM) | zone of inhibition at 1000 µg/mL (Pantoea dispersa [8]): 13 mm | MIC (Enterococcus [9]): 120 µg/mL (≈ 335 µM) | zone of inhibition at 1000 µg/mL (Ochrobactrum [10]): 11 mm

O=C(c1cc(-c2cc3ccccc3o2)nc2ccccc12)N1CCCCC1
MIC (Pantoea dispersa [2]): > 500 µg/mL | MIC (Staphylococcus aureus [4]): > 500 µg/mL | zone of inhibition at 1000 µg/mL (Staphylococcus aureus [5]): 11 mm | zone of inhibition at 1000 µg/mL (Enterococcus [6]): 7 mm | MIC (Ochrobactrum [7]): > 500 µg/mL | zone of inhibition at 1000 µg/mL (Pantoea dispersa [8]): 10 mm | MIC (Enterococcus [9]): > 500 µg/mL | zone of inhibition at 1000 µg/mL (Ochrobactrum [10]): 9 mm

O=C(Oc1ccc2ccccc2c1)c1cc(-c2cc3ccccc3o2)nc2ccccc12
IC50 [1]: 15.6 µg/mL (≈ 37.5 µM) | MIC (Pantoea dispersa [2]): 250 µg/mL (≈ 602 µM) | inhibition (INH) [3]: Active | MIC (Staphylococcus aureus [4]): 500 µg/mL (≈ 1200 µM) | zone of inhibition at 1000 µg/mL (Staphylococcus aureus [5]): 12 mm | zone of inhibition at 1000 µg/mL (Enterococcus [6]): 10 mm | MIC (Ochrobactrum [7]): > 500 µg/mL | zone of inhibition at 1000 µg/mL (Pantoea dispersa [8]): 12 mm | MIC (Enterococcus [9]): > 500 µg/mL | zone of inhibition at 1000 µg/mL (Ochrobactrum [10]): 12 mm

Cc1ccccc1OC(=O)c1cc(-c2cc3ccccc3o2)nc2ccccc12
MIC (Pantoea dispersa [2]): 120 µg/mL (≈ 316 µM) | MIC (Staphylococcus aureus [4]): 60 µg/mL (≈ 158 µM) | zone of inhibition at 1000 µg/mL (Staphylococcus aureus [5]): 17 mm | zone of inhibition at 1000 µg/mL (Enterococcus [6]): 16 mm | MIC (Ochrobactrum [7]): 25 µg/mL (≈ 65.9 µM) | zone of inhibition at 1000 µg/mL (Pantoea dispersa [8]): 19 mm | MIC (Enterococcus [9]): 60 µg/mL (≈ 158 µM) | zone of inhibition at 1000 µg/mL (Ochrobactrum [10]): 18 mm

O=C(Oc1ccc(Cl)cc1Cl)c1cc(-c2cc3ccccc3o2)nc2ccccc12
MIC (Pantoea dispersa [2]): 120 µg/mL (≈ 276 µM) | MIC (Staphylococcus aureus [4]): 250 µg/mL (≈ 576 µM) | zone of inhibition at 1000 µg/mL (Staphylococcus aureus [5]): 14 mm | zone of inhibition at 1000 µg/mL (Enterococcus [6]): 11 mm | MIC (Ochrobactrum [7]): 120 µg/mL (≈ 276 µM) | zone of inhibition at 1000 µg/mL (Pantoea dispersa [8]): 16 mm | MIC (Enterococcus [9]): 250 µg/mL (≈ 576 µM) | zone of inhibition at 1000 µg/mL (Ochrobactrum [10]): 14 mm

CC1(C)S[C@@H]2[C@H](NC(=O)[C@H](N)c3ccccc3)C(=O)N2[C@H]1C(=O)O [AMPICILLIN]
MIC (Pantoea dispersa [2]): 60 µg/mL (≈ 172 µM) | MIC (Staphylococcus aureus [4]): 60 µg/mL (≈ 172 µM) | zone of inhibition at 1000 µg/mL (Staphylococcus aureus [5]): 20 mm | zone of inhibition at 1000 µg/mL (Enterococcus [6]): 24 mm | MIC (Ochrobactrum [7]): 60 µg/mL (≈ 172 µM) | zone of inhibition at 1000 µg/mL (Pantoea dispersa [8]): 20 mm | MIC (Enterococcus [9]): 60 µg/mL (≈ 172 µM) | zone of inhibition at 1000 µg/mL (Ochrobactrum [10]): 21 mm

Cc1ccc(OC(=O)c2cc(-c3cc4ccccc4o3)nc3ccccc23)cc1
IC50 [1]: 49.5 µg/mL (≈ 130 µM) | MIC (Pantoea dispersa [2]): 250 µg/mL (≈ 659 µM) | inhibition (INH) [3]: Active | MIC (Staphylococcus aureus [4]): 60 µg/mL (≈ 158 µM) | zone of inhibition at 1000 µg/mL (Staphylococcus aureus [5]): 19 mm | zone of inhibition at 1000 µg/mL (Enterococcus [6]): 19 mm | MIC (Ochrobactrum [7]): 60 µg/mL (≈ 158 µM) | zone of inhibition at 1000 µg/mL (Pantoea dispersa [8]): 13 mm | MIC (Enterococcus [9]): 60 µg/mL (≈ 158 µM) | zone of inhibition at 1000 µg/mL (Ochrobactrum [10]): 20 mm

O=C(Oc1ccccc1Cl)c1cc(-c2cc3ccccc3o2)nc2ccccc12
IC50 [1]: > 100 µg/mL | MIC (Pantoea dispersa [2]): 120 µg/mL (≈ 300 µM) | MIC (Staphylococcus aureus [4]): 500 µg/mL (≈ 1250 µM) | zone of inhibition at 1000 µg/mL (Staphylococcus aureus [5]): 12 mm | zone of inhibition at 1000 µg/mL (Enterococcus [6]): 10 mm | MIC (Ochrobactrum [7]): 250 µg/mL (≈ 625 µM) | zone of inhibition at 1000 µg/mL (Pantoea dispersa [8]): 16 mm | MIC (Enterococcus [9]): 500 µg/mL (≈ 1250 µM) | zone of inhibition at 1000 µg/mL (Ochrobactrum [10]): 14 mm
